In one series the test system is BXPC-3. The series is described as follows: Antiproliferative activity against human BxPC3 cells after 72 hrs by Alamar blue assay. Type of series: functional. Particulars: BXPC-3, 72 h. On the technique in general: Alamar Blue is a resazurin reagent that responds to reducing activity.
The next series deals with Liver. The series is described as follows: Intrinsic clearance in mouse liver microsomes assessed as per mg of protein. Type of series: ADME, Microsome.
Series [1] can be described thus: Antiproliferative activity against human hTERT-HME1 cells after 72 hrs by Alamar blue assay. Type of series: cell-based.
Another series deals with HCT-116. The series is described as follows: Antiproliferative activity against human HCT116 cells after 72 hrs by Alamar blue assay. Type of series: functional. The following applies: HCT-116, 72 h.
Another series relates to Liver microsomes. The series is described as follows: Intrinsic clearance in human liver microsomes assessed as per mg of protein. Type of series: ADME, Microsome. (Liver microsomes are vesicles of endoplasmic reticulum, rich in cytochrome P450 enzymes.)
The next series deals with NCI-H1299. Kind of series: Antiproliferative activity against human NCI-H1299 cells after 72 hrs by Alamar blue assay. Type of series: functional. Particulars: NCI-H1299, 72 h.
Series [2] can be described thus: Intrinsic clearance in human hepatocytes assessed as per million cells. It counts as ADME, cell-based, Hepatocyte.
Series [3] in a line: Apparent permeability of the compound by PAMPA method. It counts as ADME. A general note: PAMPA measures passive passage across an artificial lipid membrane.
Series [4] concerns the target T1, Kinesin-like protein KIF11 (Homo sapiens, UniProt P52732).
T1 sequence (P52732 whole entry): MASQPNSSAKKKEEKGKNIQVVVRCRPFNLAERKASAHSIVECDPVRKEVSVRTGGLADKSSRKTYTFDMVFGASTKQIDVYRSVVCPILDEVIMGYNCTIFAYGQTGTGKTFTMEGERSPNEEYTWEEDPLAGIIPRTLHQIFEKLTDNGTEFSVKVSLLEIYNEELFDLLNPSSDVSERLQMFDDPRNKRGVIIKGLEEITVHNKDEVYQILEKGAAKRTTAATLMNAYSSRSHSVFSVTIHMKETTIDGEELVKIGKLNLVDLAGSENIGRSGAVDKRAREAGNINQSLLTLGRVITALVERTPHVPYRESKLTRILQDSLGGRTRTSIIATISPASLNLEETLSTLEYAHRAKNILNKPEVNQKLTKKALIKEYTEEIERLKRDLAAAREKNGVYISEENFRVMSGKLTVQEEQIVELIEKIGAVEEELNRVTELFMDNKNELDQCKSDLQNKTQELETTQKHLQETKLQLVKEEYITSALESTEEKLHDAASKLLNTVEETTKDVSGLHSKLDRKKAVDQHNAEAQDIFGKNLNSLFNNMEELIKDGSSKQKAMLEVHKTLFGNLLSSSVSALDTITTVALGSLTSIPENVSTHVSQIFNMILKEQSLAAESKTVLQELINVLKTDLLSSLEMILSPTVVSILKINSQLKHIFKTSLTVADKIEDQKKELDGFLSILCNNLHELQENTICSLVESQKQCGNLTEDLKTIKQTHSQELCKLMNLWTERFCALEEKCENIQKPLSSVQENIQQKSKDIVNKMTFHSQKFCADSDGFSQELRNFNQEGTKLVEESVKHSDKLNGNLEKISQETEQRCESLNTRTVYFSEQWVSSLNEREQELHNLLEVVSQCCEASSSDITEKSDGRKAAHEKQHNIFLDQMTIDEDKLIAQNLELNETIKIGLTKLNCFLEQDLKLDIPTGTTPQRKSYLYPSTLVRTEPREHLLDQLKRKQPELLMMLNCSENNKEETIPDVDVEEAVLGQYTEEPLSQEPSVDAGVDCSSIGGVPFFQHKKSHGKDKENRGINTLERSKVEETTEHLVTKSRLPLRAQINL

Another series deals with K562. The series is described as follows: cells. The following applies: Homo sapiens, K562, 72 h.
Series [5] is described as follows: Dissociation constant, pKa of the compound. It counts as physicochemical.
Series [6] can be described thus: Lipophilicity, Log P of the compound. It counts as physicochemical. Particulars: octanol/water.
The nature of series [7]: Distribution coefficient, log D of the compound at pH 7.4. Type of series: physicochemical. The following applies: octanol/water.
Series [8] in a line: Turbidimetric solubility of the compound at pH 6. Particulars: buffer. Type of series: physicochemical.
Series [9] in a line: Turbidimetric solubility of the compound at pH 7.4. It counts as physicochemical. Particulars: buffer.
A short description of series [10]: Turbidimetric solubility of the compound at pH 2. It counts as physicochemical. Particulars: buffer.

Data on 6 molecules can be found in ChEMBL document CHEMBL2021885, “Triphenylbutanamines: kinesin spindle protein inhibitors with in vivo antitumor activity” (J Med Chem, 2012).

≈ marks a conversion by molar mass, not a printed value.

For orientation: GI50 means the concentration that inhibits growth by half. One may read the Ki as a measure of affinity in units of concentration, obtained from inhibition or displacement. By pKa is commonly meant the negative logarithm of the acid dissociation constant. Read a high pKa as a weaker acid or stronger base. As a reminder, the logP is the decadic logarithm of the partition coefficient of the neutral form, usually between octanol and water. As a reminder, the logD is the decadic logarithm of the distribution of all forms, ionised or not, between an organic phase and buffer at a given pH. In general, solubility (kinetic) refers to the concentration staying in solution when a stock, usually in DMSO, is diluted into the medium.

Description for K562: Antiproliferative activity against human K562 cells after 72 hrs by Alamar blue assay

Take `Cc1cccc(C(CC[C@H](N)C(=O)O)(c2ccccc2)c2ccccc2)c1`: the GI50 with BXPC-3 was determined as 180 nM; in the series with HCT-116, 95 nM; in the series on NCI-H1299 it was 281 nM. Further, the CLH result (in the series on Liver; with Liver microsomes; in series [2]) was “Stable” throughout. This molecule also had a GI50 at 72 h in series [1] of 42 nM.
Turning to `N[C@@H](CSC(c1ccccc1)(c1ccccc1)c1cccc(O)c1)C(=O)O`, in series [3], the Papp result is reported as “impermeable”. For the same molecule, the inhibition constant (Ki) in [4] amounted to 48.8 nM. For the same molecule, halving of growth in the series on K562 (GI50) required 2560 nM.
Turning to `Cc1ccc(C(=O)N(CCCN)[C@@H](c2nc3cc(Cl)ccc3c(=O)n2Cc2ccccc2)C(C)C)cc1` [ISPINESIB], in [5], the pKa was found to be 9.34. Also, the CLH entry in the series with Liver is “Stable”; in the series with Liver microsomes, “Stable”; in series [2], 0.75 µL/min. The log partition coefficient (logP) in series [6] is recorded as 4.75. For the same molecule, the logD in series [7] was found to be 2.66. In series [1], this molecule yielded a GI50 at 72 h of 32 nM. Besides, growth in the series on K562 was halved (GI50) at 71 nM.
`CCCc1cccc(C(SCCN)(c2ccccc2)c2ccccc2)c1` yielded a solubility (kinetic) in “physchem” of 3.75 µM (≈ 1.36 µg/mL). Besides, the 50% growth inhibitory concentration (GI50) in the series on K562 was 1760 nM.
Turning to `Cc1cccc(C(CCCN)(c2ccccc2)c2ccccc2)c1`, the pKa in series [5] stood at 10.1. This molecule also came in with a log partition coefficient (logP) in [6] of 4.69. Moreover, the logD in series [7] came out at 2.33. Besides, the kinetic solubility in [8], in series [9] and in series [10] was greater than 100 µM each time. Besides, the GI50 at 72 h in [1] is 150 nM. Also, the values for the CLH entry (in the series on Liver microsomes; in series [2]) were “Stable” and 3.93 µL/min, respectively.
Turning to `NC(=O)c1cccc(C(SC[C@H](N)C(=O)O)(c2ccccc2)c2ccccc2)c1`, the Papp entry in [3] was “impermeable”. The concentration for 50% growth inhibition (GI50) in the series on K562 turned out to be 16700 nM.
